Source: article PMC4149238, “Systemic delivery of P42 peptide: a new weapon to fight Huntington’s disease” (Acta Neuropathologica Communications, 2014)
Each block holds one molecule with its values, some of them ahead of it. Residues, ends and D or L forms follow the SMILES beside them. *: point of attachment. 5TAMRA = CN(C)c1ccc2c(c1)Oc1cc(N(C)C)ccc1C21OC(=O)c2cc(C(=O)*)ccc21

How the values were obtained:
HeLa cells [1] = assay: Internalization of exogenous peptide into HeLa cells; format: cell-based, human; conditions: synthetic TAMRA end-labelled peptide in culture medium, anti-TAMRA immunostaining, confocal
Description: (§1) HeLa cells were grown and maintained in DMEM medium (Gibco) supplemented with 10% fetal calf serum and glutamine. HeLa cells were grown in 6 well plates, and pDdest53-GFP-hHtt^171aa-136Q (0.75 μg) was transfected with JetPei reagent (Qbiogene). Equal amounts of pcDNA-Cherry-P42 or control vector were added for each transfection to level the total amount of plasmid DNA. To test the internalization of exogenous peptide, synthesized TAMRA-P42-TAT was added at the same time as pDest53-GFP-hHtt^171aa-Q136 transfection, at different concentrations (0, 0.5, 1, 5, 10 or 20 μM). Cells were incubated with plasmid and peptide for 12 h. Then the medium was washed twice with PBS, the cells trypsinized, and grown on a coverslip with new DMEM medium for 6 h. This step was necessary to eliminate the peptide that crystallizes on the well. Eventually, cells were fixed with 4% paraformaldehyde and immunostained for microscopic analysis. To observe the internalization of the peptide TAMRA-P42-TAT, the signal was amplified by anti-TAMRA immunostaining (1:500- Invitrogen). Nuclei were counterstained with DAPI (4′, 6 diamino-2-phenylindole). The pictures were taken with a confocal laser scanning microscope model LSM780 (Carl Zeiss).

HeLa cells [2] = assay: MTT test of HeLa cell survival; format: cell-based, human; conditions: large excess of peptide, data not shown
[3] = tested on: brain of wild-type C57BL/6 J mice; assay: Brain distribution of TAMRA-P42-TAT after ICV injection; format: in vivo, mouse
Description: To test the stability of the peptide in the brain, single intracerebroventricular (ICV) injection of peptides was performed in the right ventricle of C57BL/6 mice as described in [15]. 5 μg or 1 μg of TAMRA-P42-TAT were stereotaxically injected into the right lateral ventricle (coordinates 1 mm right lateral to bregma and 3 mm ventral to the skull surface) of C57BL/6 J mice using a 10 μl Hamilton syringe at a rate of 0.2 μl to 1 μl/min. As a control, saline was injected in the same volume and at the same rate. […]
TAMRA-P42-TAT injected mice were also immunostained with rabbit monoclonal anti-DARPP32 (MAb2306 - Cell Signaling Technology - 1: 1600), secondary detected by Alexa 488 anti-rabbit (1: 2000) to label the striatum, and with mouse monoclonal anti-NeuN (MAB377 – Millipore - 1: 1000), secondary detected by Dye light blue anti-mouse (1: 500), as a neuronal marker.

[4] = tested on: GFP-hHtt^171aa-Q136 aggregation; assay: polyQ-hHtt aggregation in transfected HeLa cells (microscopy); format: cell-based, human; conditions: HeLa cells co-transfected with GFP-hHtt171aa-Q136 and vector expressing Cherry-tagged peptide, vs empty vector
Description: as §1

[5] = tested on: flies expressing hHtt exon1 with expanded polyQ; conditions: cited from earlier work
Excerpt: Most research undertaken to find a cure for HD focus on the mutated allele (trying to reduce its expression), or on the polyQ stretch that is responsible for aggregation, but that is also present in other neurodegenerative diseases. Our approach is based on the observation that the ratio between normal and mutant Huntingtin is a crucial factor in the onset and progression of the disease. In a previous work, we confirmed the protective role of wild-type N-terminus Htt. We further screened human hHtt, for peptides able to prevent polyQ-hHtt aggregation i ... || The efficient rescue supported by P42 administration represents one of the best therapeutic effects described so far. Therapeutic research currently targets mutant Htt at transcriptional or post-translational level. The recent works in RNA interference or ASO strategies attempt to reduce the expression of the mutant transcript. Despite recent progress, the limitation of this approach lays in the effects on the wild-type allele and the aggravation of the loss of function effects. Biochemical molecules and intrabodies have also been designed against the protein, in order to target abnorma ...

[6] = tested on: brain of wild-type C57BL/6 J mice; assay: Brain targeting after buccal/rectal NP42T (MALDI Imaging Mass Spectrometry); format: in vivo, mouse; conditions: NP42T 210 μg, four buccal and four rectal administrations, 3 h, MALDI IMS, two mice
Description: For MALDI analysis, wild-type C57BL/6 J mice have been injected either by ICV (2.1 μg), or treated with empty NP, or with NP42T (210 μg) microemulsions. For NP and NP42T, four buccal and four rectal administrations (1 ml/kg) have been performed, spaced by 30 minutes to ensure mucosa internalization. Two mice have been treated for each condition and sacrificed 3 h after the injections.
Tissue preparation and MALDI imaging analysis: Frozen brain sections were cut in 15 μm slices using an HM 550 OVPD cryostat (Fisher Scientific, Illkirch, France), set at −20°C, mounted on ITO coated conductive glass slides and allowed to thaw and desiccate in a vacuum desiccator. Tissue sections were then coated manually with a 10 mg/ml α-cyano-4-hydroxycinnamic acid dissolved in 50% acetonitrile (ACN) and 0.1% trifluoroacetic acid (TFA).
MALDI imaging was performed using the 4800 Plus MALDI TOF/TOF^TM Analyzer (AB Sciex). Image acquisition was achieved using the 4800 imaging tool software (MSI imaging). […]
The two dimensional ion image of the tissue section was analyzed using Tissue View^TM software (Applied Biosystems/MDS analytical technologies). A colour scale representing signal intensity is exported from Tissue View^TM software to provide semi quantitative information.

wild-type mice = assay: Tolerability in NP42T-treated wild-type mice; format: in vivo, mouse; conditions: week 2 to 11
Description: For animal experimentation, a cohort of 30 females was divided into four groups (WT treated with empty NP (n = 5); WT treated with NP42T (n = 8); R6/2 treated with empty NP (n = 8); R6/2 treated with NP42T (n = 9)). Administrations were performed five days a week, at the same time of the day, starting in 2-week-old mice. The treatment was performed until the mice were sacrificed (at week 11). NP42T peptide (600 μg/ml/kg) was administrated twice a day per mucosa, with two buccal injections until the mice were 4 week old, and via rectal and buccal injections for older animals older.

[7] = mice brain soluble extract, 15 μg peptide, incubation 0, 1, 3 and 6 h, MALDI-MS
Description: MALDI MS and MS/MS analysis: Spectra acquisition has been performed using the 4800 Plus MALDI TOF/TOF^TM mass spectrometer (ABSciex) controlled by the 4000 Series Explorer^TM. MS spectra were acquired in a reflector positive mode (mass range: m/z 700–4000, laser intensity set at 50% and 3000 total laser shots per spectrum, MS resolution ≥ 12000–17000). MS/MS precursor was selected manually with an absolute mass window of 1 Da and each MS/MS spectrum is the result of 1000 total laser shots with a laser intensity set at 50% and a MS/MS resolution ≥ 2000–5000. The fragmentation was performed at collision energy of 2 kV and a collision air pressure set at 10^−6 Torr.

Molecule: CC[C@H](C)[C@H](NC(=O)[C@H](CC(=O)O)NC(=O)[C@H](Cc1c[nH]cn1)NC(=O)CNC(=O)[C@H](C)NC(=O)[C@H](CO)NC(=O)CNC(=O)[C@@H]1CCCN1C(=O)[C@@H](NC(=O)[C@H](CO)NC(=O)[C@@H](NC(=O)CNC(=O)[C@H](CO)NC(=O)[C@H](CO)NC(=O)[C@H](C)NC(=O)[C@H](C)NC(=O)c1ccc2c(c1)C(=O)OC21c2ccc(N(C)C)cc2Oc2cc(N(C)C)ccc21)C(C)C)[C@@H](C)O)C(=O)N[C@H](C(=O)N[C@H](C(=O)N[C@@H](CCC(=O)O)C(=O)N[C@@H](CCC(N)=O)C(=O)N1CCC[C@H]1C(=O)N[C@@H](CCCNC(=N)N)C(=O)N[C@@H](CO)C(=O)NCC(=O)NCC(=O)N[C@@H](Cc1ccc(O)cc1)C(=O)NCC(=O)N[C@@H](CCCNC(=N)N)C(=O)N[C@@H](CCCCN)C(=O)N[C@@H](CCCCN)C(=O)N[C@@H](CCCNC(=N)N)C(=O)N[C@@H](CCCNC(=N)N)C(=O)N[C@@H](CCC(N)=O)C(=O)N[C@@H](CCCNC(=N)N)C(=O)N[C@@H](CCCNC(=N)N)C(=O)N[C@@H](CCCNC(=N)N)C(=O)O)[C@@H](C)O)[C@@H](C)CC [TAMRA-P42-TAT] (5TAMRA-AASSGVSTPGSAGHDIITEQPRSGGYGRKKRRQRRR-OH; N-terminus and C-terminus assumed)
uptake into cultured cells (HeLa cells [1]): taken up by almost all the cells
IC50 on HeLa cell survival (MTT test) (HeLa cells [2]): could not be measured
detection in brain 24 hrs after ICV injection ([3]; C57BL/6 J mice, ICV 5 μg or 1 μg, 24 hrs, data not shown, n = 12): still detected
distribution in the striatum after ICV injection ([3]; wild-type C57BL/6 J mice, ICV, sacrificed 3 hours after injection, TAMRA signal, DARPP32/NeuN co-staining): largely diffusing within the neurons

Molecule: P42: 23aa peptide lying in the N-terminus (position 480–502 aa) of normal human Htt
rescue of GFP-Htt^171aa-Q136 aggregation [4]: completely rescue
eye degeneration of flies expressing hHtt exon1 with expanded polyQ ([5]; Drosophila model of HD): able to prevent eye degeneration
effects on lifespan [5]: partial

Molecule: CC[C@H](C)[C@H](NC(=O)[C@H](CC(=O)O)NC(=O)[C@H](Cc1c[nH]cn1)NC(=O)CNC(=O)[C@H](C)NC(=O)[C@H](CO)NC(=O)CNC(=O)[C@@H]1CCCN1C(=O)[C@@H](NC(=O)[C@H](CO)NC(=O)[C@@H](NC(=O)CNC(=O)[C@H](CO)NC(=O)[C@H](CO)NC(=O)[C@H](C)NC(=O)[C@H](C)N)C(C)C)[C@@H](C)O)C(=O)N[C@H](C(=O)N[C@H](C(=O)N[C@@H](CCC(=O)O)C(=O)N[C@@H](CCC(N)=O)C(=O)N1CCC[C@H]1C(=O)N[C@@H](CCCNC(=N)N)C(=O)N[C@@H](CO)C(=O)NCC(=O)NCC(=O)N[C@@H](Cc1ccc(O)cc1)C(=O)NCC(=O)N[C@@H](CCCNC(=N)N)C(=O)N[C@@H](CCCCN)C(=O)N[C@@H](CCCCN)C(=O)N[C@@H](CCCNC(=N)N)C(=O)N[C@@H](CCCNC(=N)N)C(=O)N[C@@H](CCC(N)=O)C(=O)N[C@@H](CCCNC(=N)N)C(=O)N[C@@H](CCCNC(=N)N)C(=O)N[C@@H](CCCNC(=N)N)C(=O)O)[C@@H](C)O)[C@@H](C)CC [P42-TAT] (H-AASSGVSTPGSAGHDIITEQPRSGGYGRKKRRQRRR-OH)
presence in the brain after Aonys administration [6]: able to reach the brain
toxicity noticed during the study (wild-type mice): no toxicity
time until full length peptide was degraded [7]: ≤ 1 h

presence in the brain after Aonys administration [6]: still present in the brain
Molecule: CC[C@H](C)[C@H](NC(=O)[C@H](CC(=O)O)NC(=O)[C@H](Cc1c[nH]cn1)NC(=O)CNC(=O)[C@H](C)NC(=O)[C@H](CO)NC(=O)CN)C(=O)N[C@H](C(=O)N[C@H](C(=O)N[C@@H](CCC(=O)O)C(=O)N[C@@H](CCC(N)=O)C(=O)N1CCC[C@H]1C(=O)N[C@@H](CCCNC(=N)N)C(=O)N[C@@H](CO)C(=O)NCC(=O)NCC(=O)N[C@@H](Cc1ccc(O)cc1)C(=O)NCC(=O)O)[C@@H](C)O)[C@@H](C)CC [m/z 1801.84 derivative] (H-GSAGHDIITEQPRSGGYG-OH)
